From patent EP1981504B1, “THIADIAZOLE DERIVATIVES FOR THE TREATMENT OF NEURO DEGENERATIVE DISEASES” (NV reMYND, priority 2006, dated 2007)
Values after ≈ are worked out from the molar mass of the structure shown.

System: M17-SYNwt cells
Assay: α-synuclein cytotoxicity assay (LDH leakage from paraquat-treated α-synuclein over-expressing neuroblastoma cells)
Type: cell-based, human
Conditions: paraquat 32 mM, 40 hours, LDH release; for %I: percent inhibition of synuclein cytotoxicity at most effective concentration of test compound, relative to untreated paraquat cells; for EC50: Homo sapiens, Neuroblastoma cell, 10 point curves in duplicate
Description: Subsequently, LDH activity was determined using Promega Cytotox 96 NonRadioactive cytotoxicity assay, (Cat. G1780) according the supplier's instructions.
This corresponds to the following equation: (LDHreleaseoftreatedparaquatcellsatnon-effectiveconcentrationoftestcmpd)−(LDHreleaseoftreatedparaquatcellsatmosteffectiveconcentrationoftestcmpd)/(LDHreleaseofuntreatedparaquatcells)−(LDHreleasecontrolcells)*100% [formula]
1,2,4-thiadazole compounds made according to the methods described herein were screened for activity using the α-synuclein cytotoxicity assay as described above. Dose responses were carried out on all compounds found to be active (10 point curves in duplicate).

| SMILES | %I [%] | EC50 [µg/mL] |
| --- | --- | --- |
| Cc1ccc(Cc2nsc(N3CCN(S(=O)(=O)c4ccc(Br)cc4)CC3)n2)cc1 [Compound 64, 1-[4-bromophenylsulfonyl]-4-[3-(4-methylbenzyl)-1,2,4-thiadiazol-5-yl]piperazine] | 58 | – |
| Cc1ccc(Cc2nsc(N3CCN(S(=O)(=O)c4ccc5ccccc5c4)CC3)n2)cc1 [Compound 65, 1-[2-naphtylsulfonyl]-4-[3-(4-methylbenzyl)-1,2,4-thiadiazol-5-yl]piperazine] | 78 | 0.0393 (≈ 0.0845 µM) |
| Cc1ccc(Cc2nsc(N3CCN(S(=O)(=O)c4ccc(Cl)cc4)CC3)n2)cc1 [Compound 66, 1-[4-chlorophenylsulfonyl]-4-[3-(4-methylbenzyl)-1,2,4-thiadiazol-5-yl]piperazine] | 81 | – |
| Cc1ccc(Cc2nsc(N3CCN(S(=O)(=O)c4ccc(C(C)(C)C)cc4)CC3)n2)cc1 [Compound 67, 1-[4-tert-butylphenylsulfonyl]-4-[3-(4-methylbenzyl)-1,2,4-thiadiazol-5-yl]piperazine] | 41 | – |
| COc1ccc(S(=O)(=O)N2CCN(c3nc(Cc4ccc(C)cc4)ns3)CC2)cc1 [Compound 68, 1-[4-methoxyphenylsulfonyl]-4-[3-(4-methylbenzyl)-1,2,4-thiadiazol-5-yl]piperazine] | 53 | 0.000255 (≈ 0.000574 µM) |
| CC(C)(C)c1ccc(S(=O)(=O)N2CCN(c3nc(Cc4ccc(Cl)cc4)ns3)CC2)cc1 [Compound 69, 1-[4-tert-butylphenylsulfonyl]-4-[3-(4-chlorobenzyl)-1,2,4-thiadiazol-5-yl]piperazine] | 31 | – |
| Cc1ccc(Cc2nsc(N3CCN(S(=O)(=O)c4cccc5cccnc45)CC3)n2)cc1 [Compound 70, 1-[quinoline-8-sulfonyl]-4-[3-(4-methylbenzyl)-1,2,4-thiadiazol-5-yl]piperazine] | 44 | – |
| Cc1ccc(Cc2nsc(N3CCN(S(=O)(=O)c4ccc([N+](=O)[O-])cc4)C(C)C3)n2)cc1 (stereo not drawn) [Compound 71, 1-[4-nitrophenylsulfonyl]-4-[3-(4-methylbenzyl)-1,2,4-thiadiazol-5-yl]-2-methylpiperazine] | 33 | – |
| CC1CN(c2nc(Cc3ccc(F)cc3)ns2)CCN1S(=O)(=O)c1ccc([N+](=O)[O-])cc1 (stereo not drawn) [Compound 73, 1-[4-nitrophenylsulfonyl]-4-[3-(4-fluorobenzyl)-1,2,4-thiadiazol-5-yl]-2-methylpiperazine] | 33 | – |
| O=S(=O)(Cc1ccccc1)N1CCN(c2nc(Cc3ccc(Cl)cc3)ns2)CC1 [Compound 76, 1-(benzylsulfonyl)-4-[3-(4-chlorobenzyl)-1,2,4-thiadiazol-5-yl]piperazine] | 40 | – |
| Cc1ccc(Cc2nsc(N3CCN(S(=O)(=O)Cc4ccccc4)CC3)n2)cc1 [Compound 77, 1-(benzylsulfonyl)-4-[3-(4-methylbenzyl)-1,2,4-thiadiazol-5-yl]piperazine] | 81 | – |
| CCCCS(=O)(=O)N1CCN(c2nc(Cc3ccc(Cl)cc3)ns2)CC1 [Compound 81, 1-(butylsulfonyl)-4-[3-(4-chlorobenzyl)-1,2,4-thiadiazol-5-yl]piperazine] | 80 | 0.35 (≈ 0.843 µM) |
| CCCCCCCCS(=O)(=O)N1CCN(c2nc(Cc3ccc(C)cc3)ns2)CC1 [Compound 82, 1-(octylsulfonyl)-4-[3-(4-methylbenzyl)-1,2,4-thiadiazol-5-yl]piperazine] | 50 | 1.58 (≈ 3.51 µM) |
| CCCCS(=O)(=O)N1CCN(c2nc(Cc3ccc(C)cc3)ns2)CC1 [Compound 83, 1-(butylsulfonyl)-4-[3-(4-methylbenzyl)-1,2,4-thiadiazol-5-yl]piperazine] | 36 | 2.64 (≈ 6.69 µM) |
| CCS(=O)(=O)N1CCN(c2nc(Cc3ccc(Cl)cc3)ns2)CC1 [Compound 84, 1-(ethylsulfonyl)-4-[3-(4-chlorobenzyl)-1,2,4-thiadiazol-5-yl]piperazine] | 53 | 3.48 (≈ 8.99 µM) |
| Cc1ccc(Cc2nsc(N3CCN(S(=O)(=O)C(C)C)CC3)n2)cc1 [Compound 85, 1-(isopropylsulfonyl)-4-[3-(4-methylbenzyl)-1,2,4-thiadiazol-5-yl]piperazine] | 69 | 3.65 (≈ 9.59 µM) |
| CC1CN(c2nc(Cc3ccc(Cl)cc3)ns2)CCN1C(=O)/C=C/c1ccccc1 (stereo not drawn) [Compound 86, 1-[(2E)-3-phenylprop-2-enoyl]-4-[3-(4-chlorobenzyl)-1,2,4-thiadiazol-5-yl]-2-methylpiperazine] | 81 | 1.13 (≈ 2.57 µM) |
| CC1CN(c2nc(Cc3ccc(F)cc3)ns2)CCN1C(=O)/C=C/c1ccccc1 (stereo not drawn) [Compound 87, 1-[(2E)-3-phenylprop-2-enoyl]-4-B103-2-methylpiperazine] | 94 | 2.49 (≈ 5.89 µM) |

| SMILES | %I [%] | EC50 [µg/mL] |
| --- | --- | --- |
| O=C(/C=C/c1ccccc1)N1CCN(c2nc(Cc3ccc(Cl)cc3)ns2)CC1 [Compound 88, 1-[(2E)-3-phenylprop-2-enoyl]-4-[3-(4-chlorobenzyl)-1,2,4-thiadiazol-5-yl]piperazine] | 72 | – |
| CC1CN(c2nc(Cc3ccc(F)cc3)ns2)CCN1C(=O)CCc1ccccc1 (stereo not drawn) [Compound 89, 1-(3-phenylpropanoyl)-4-[3-(4-fluorobenzyl)-1,2,4-thiadiazol-5-yl]-2-methylpiperazine] | 86 | 0.6 (≈ 1.41 µM) |
| O=C(CCc1ccccc1)N1CCN(c2nc(Cc3ccc(F)cc3)ns2)CC1 [Compound 90, 1-(3-phenylpropanoyl)-4-[3-(4-fluorobenzyl)-1,2,4-thiadiazol-5-yl]piperazine] | 73 | 1.41 (≈ 3.43 µM) |
| Cc1ccc(Cc2nsc(N3CCN(C/C=C/c4ccccc4)CC3)n2)cc1 [Compound 91, 1-[3-phenylprop-2-enyl]-4-[3-(4-methylbenzyl)-1,2,4-thiadiazol-5-yl]piperazine] | 90 | 0.71 (≈ 1.82 µM) |
| Clc1ccc(Cc2nsc(N3CCN(C/C=C/c4ccccc4)CC3)n2)cc1 [Compound 92, 1-[3-phenylprop-2-enyl]-4-[3-(4-chlorobenzyl)-1,2,4-thiadiazol-5-yl]piperazine] | 69 | 0.75 (≈ 1.82 µM) |
| Fc1ccc(Cc2nsc(N3CCN(C/C=C/c4ccccc4)CC3)n2)cc1 [Compound 93, 1-[3-phenylprop-2-enyl]-4-[3-(4-fluorobenzyl)-1,2,4-thiadiazol-5-yl]piperazine] | 91 | 1.99 (≈ 5.04 µM) |
| CCCCCc1ccc(C(=O)NCCN2CCN(c3nc(Cc4ccc(F)cc4)ns3)CC2)cc1 [Compound 94, 4-pentyl-N-{2-[4-[3-(4-fluorobenzyl)-1,2,4-thiadiazol-5-yl]piperazin-1-yl]ethyl}benzamide] | 90 | 0.35 (≈ 0.706 µM) |
| CCCCc1ccc(C(=O)NCCN2CCN(c3nc(Cc4ccc(F)cc4)ns3)CC2)cc1 [Compound 95, 4-butyl-N-{2-[4-[3-(4-fluorobenzyl)-1,2,4-thiadiazol-5-yl]piperazin-1-yl]ethyl}benzamide] | 78 | 0.38 (≈ 0.789 µM) |
| CCCCCCc1ccc(C(=O)NCCN2CCN(c3nc(Cc4ccc(F)cc4)ns3)CC2)cc1 [Compound 96, 4-hexyl-N-{2-[4-[3-(4-fluorobenzyl)-1,2,4-thiadiazol-5-yl]piperazin-1-yl]ethyl}benzamide] | 72 | 0.8 (≈ 1.57 µM) |
| O=C(NCCN1CCN(c2nc(Cc3ccc(F)cc3)ns2)CC1)c1ccc(Cl)cc1 [Compound 97, 4-chloro-N-{2-[4-[3-(4-fluorobenzyl)-1,2,4-thiadiazol-5-yl]piperazin-1-yl]ethyl}benzamide] | 68 | 1.29 (≈ 2.8 µM) |
| O=C(NCCN1CCN(c2nc(Cc3ccc(F)cc3)ns2)CC1)c1cc(Cl)cc(Cl)c1 [Compound 98, 3,5-dichloro-N-{2-[4-[3-(4-fluorobenzyl)-1,2,4-thiadiazol-5-yl]piperazin-1-yl]ethyl}benzamide] | 102 | 1.42 (≈ 2.87 µM) |
| Cc1ccccc1C(=O)NCCN1CCN(c2nc(Cc3ccc(F)cc3)ns2)CC1 [Compound 99, 2-methyl-N-{2-[4-[3-(4-fluorobenzyl)-1,2,4-thiadiazol-5-yl]piperazin-1-yl]ethyl}benzamide] | 97 | 1.58 (≈ 3.59 µM) |
| O=C(NCCN1CCN(c2nc(Cc3ccc(Cl)cc3)ns2)CC1)c1cccc(F)c1 [Compound 100, 3-fluoro-N-(2-[4-[3-(4-chlorobenzyl)-1,2,4-thiadiazof-5-yl]piperazin-1-yl]ethyl)benzamide] | 75 | 1.79 (≈ 3.89 µM) |
| Cc1ccc(C(=O)NCCN2CCN(c3nc(Cc4ccc(F)cc4)ns3)CC2)cc1 [Compound 101, 4-methyl-N-{2-[4-[3-(4-fluorobenzyl)-1,2,4-thiadiazol-5-yl]piperazin-1-yl]ethyl}benzamide] | 68 | 1.94 (≈ 4.41 µM) |
| O=C(NCCN1CCN(c2nc(Cc3ccc(F)cc3)ns2)CC1)c1ccc(F)cc1 [Compound 102, 4-fluoro-N-{2-[4-[3-(4-fluorobenzyl)-1,2,4-thiadiazol-5-yl]piperazin-1-yl]ethyl}benzamide] | 80 | 1.99 (≈ 4.49 µM) |
| CCc1ccc(C(=O)NCCN2CCN(c3nc(Cc4ccc(F)cc4)ns3)CC2)cc1 [Compound 103, 4-ethyl-N-{2-[4-[3-(4-fluorobenzyl)-1,2,4-thiadiazol-5-yl]piperazin-1-yl]ethyl}benzamide] | 139 | 2.32 (≈ 5.11 µM) |
| O=C(NCCN1CCN(c2nc(Cc3ccc(F)cc3)ns2)CC1)c1ccccc1 [Compound 104, N-{2-[4-[3-(4-fluorobenzyl)-1,2,4-thiadiazol-5-yl]piperazin-1-yl]ethyl}benzamide] | 65 | 3.82 (≈ 8.98 µM) |
